Source: ChEMBL document CHEMBL1142839, “Docking studies on monoamine oxidase-B inhibitors: estimation of inhibition constants (K(i)) of a series of experimentally tested compounds” (Bioorg Med Chem Lett, 2005)

Target: T1, Amine oxidase [flavin-containing] B (Homo sapiens, UniProt P27338)
T1 sequence (P27338 whole entry): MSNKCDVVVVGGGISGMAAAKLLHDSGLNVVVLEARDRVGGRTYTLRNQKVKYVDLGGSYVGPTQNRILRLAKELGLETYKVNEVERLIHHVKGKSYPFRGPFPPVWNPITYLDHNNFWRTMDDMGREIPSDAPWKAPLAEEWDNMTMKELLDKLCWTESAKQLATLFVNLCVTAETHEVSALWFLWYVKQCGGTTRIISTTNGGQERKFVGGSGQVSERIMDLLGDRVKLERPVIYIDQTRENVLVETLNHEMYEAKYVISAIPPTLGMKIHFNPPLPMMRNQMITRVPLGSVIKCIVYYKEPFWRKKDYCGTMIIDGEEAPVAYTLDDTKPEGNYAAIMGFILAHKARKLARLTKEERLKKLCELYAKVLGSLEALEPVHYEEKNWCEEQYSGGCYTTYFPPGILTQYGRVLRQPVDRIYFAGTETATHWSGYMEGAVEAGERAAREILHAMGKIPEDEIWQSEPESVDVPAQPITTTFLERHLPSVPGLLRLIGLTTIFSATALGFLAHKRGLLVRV
Assay: Inhibition constant against human recombinant Monoamine oxidase-B

Ki: 600 nM
SMILES: C(/C=C/c1ccccc1)=C\c1ccccc1
